Molecules are shown by their SMILES.

The text below walks through data of the supplement of paper PMC6580486.

One test has as its system PCB490-4 (human epithelioid sarcoma primary culture). Here is the method: (§1)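 Roche open-access kinase inhibitor screen (223 compounds) on human epithelioid sarcoma primary cultures from three spatially distinct regions of tumor PCB490. 384-well plates, 72 h, CellTiter-Glo viability; IC50 by Hill curve fit. 100000 nM = no IC50 reached. Compound ids carry a plate-well prefix, which is stripped.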
The subject of another test is PCB490-5 (human epithelioid sarcoma primary culture). As for the experimental part:
as §1

Another test concerns PCB490-3 (human epithelioid sarcoma primary culture). As for the experimental part:
as §1

On to `Cn1c(=O)c(Oc2ccccc2F)cc2cnc(NC3CCOCC3)nc21`, for which the IC50 cell viability in the test on PCB490-4, with PCB490-5 and in the test on PCB490-3 was > 100 µM throughout.
With `Cn1cc(C2=C(c3ccccc3C(F)(F)F)C(=O)NC2=O)c2ccccc21`, the IC50 cell viability in the test with PCB490-4, in the test on PCB490-5 and in the test with PCB490-3 was > 100 µM each time.
For `Cc1ccc2c(c1)c(C1=C(c3cn(C)c4ccccc34)C(=O)NC1=O)cn2C`, the IC50 cell viability in the test on PCB490-4, in the test with PCB490-5 and in the test with PCB490-3 was > 100 µM throughout.
Regarding `CN=C1NC(=O)/C(=C/c2ccc3ncccc3c2)S1`, the IC50 cell viability in the test with PCB490-4, in the test with PCB490-5 and with PCB490-3 was > 100 µM in each case.
As for `OCCn1c(-c2ccncc2)c(-c2ccc(F)cc2)c2ncccc21`, the IC50 cell viability in the test with PCB490-4, with PCB490-5 and in the test with PCB490-3 was > 100 µM throughout.
As for `Cc1[nH]n(-c2ccccc2)c(=O)c1C(=O)c1ccccc1`, the IC50 cell viability in the test with PCB490-4, in the test on PCB490-5 and in the test with PCB490-3 was > 100 µM throughout.
For the molecule `Cn1c(=O)c(Sc2ccccc2F)cc2cnc(NC3CCOCC3)nc21`, the IC50 cell viability with PCB490-4, with PCB490-5 and in the test on PCB490-3 was > 100 µM each time.
Consider `O=C1OC(=O)C(c2c[nH]c3ccccc23)=C1c1c[nH]c2ccccc12`, for which the IC50 cell viability in the test with PCB490-4, in the test with PCB490-5 and in the test with PCB490-3 was > 100 µM each time.
As to `COc1cccc(C2=C(c3cn(C)c4cc(F)ccc34)C(=O)NC2=O)c1`, the IC50 cell viability in the test on PCB490-4, in the test with PCB490-5 and in the test with PCB490-3 was > 100 µM throughout.
For `O=C1NC(=N[C@H](CO)Cc2ccccc2)S/C1=C\c1ccc2ncccc2c1`, the IC50 cell viability with PCB490-4, with PCB490-5 and in the test on PCB490-3 was > 100 µM throughout.
Take `Nc1c(C(=O)c2cccc(CCS(N)(=O)=O)c2)cnn1-c1ccc(F)cc1`: the IC50 cell viability in the test on PCB490-4, in the test on PCB490-5 and with PCB490-3 was > 100 µM each time.
For the molecule `COc1cccc(C2=C(c3cn(C)c4ccccc34)C(=O)NC2=O)c1`, the IC50 cell viability with PCB490-4, in the test with PCB490-5 and with PCB490-3 was > 100 µM in each case.
In the case of `Nc1c(C(=O)c2cccc(-c3ccncc3)c2)cnn1-c1ccc(F)cc1`, the IC50 cell viability with PCB490-4, in the test on PCB490-5 and in the test on PCB490-3 was > 100 µM in each case.
In the case of `Nc1c(C(=O)c2cccc(C#CCO)c2)cnn1-c1ccc(F)cc1`, the IC50 cell viability with PCB490-4, in the test on PCB490-5 and with PCB490-3 was > 100 µM in each case.
For the molecule `Nc1c(C(=O)c2cccc(C#CCN3CCCCC3)c2)cnn1-c1ccc(F)cc1`, the IC50 cell viability with PCB490-4, with PCB490-5 and with PCB490-3 was > 100 µM in each case.
Consider `NC1=NC(=O)/C(=C/c2ccc3ncccc3c2)S1`, for which the IC50 cell viability with PCB490-4, with PCB490-5 and in the test on PCB490-3 was > 100 µM throughout.
As for `Cn1c(=O)c(Oc2ccc(F)cc2F)cc2cnc(NC3CCOCC3)nc21`, the IC50 cell viability in the test on PCB490-4, with PCB490-5 and in the test with PCB490-3 was > 100 µM each time.
As for `CCn1c(=O)c(Oc2ccc(F)cc2F)cc2cnc(NC3CCOCC3)nc21`, the IC50 cell viability with PCB490-4, in the test on PCB490-5 and with PCB490-3 was > 100 µM in each case.
As for `Cn1cc(C2=C(c3cn(C)c4ccc(OCc5ccccc5)cc34)C(=O)NC2=O)c2ccccc21`, the IC50 cell viability in the test with PCB490-4, in the test with PCB490-5 and in the test with PCB490-3 was > 100 µM each time.
Consider `Cn1cc(C2=C(c3cccc(Cl)c3)C(=O)NC2=O)c2ccccc21`, for which the IC50 cell viability with PCB490-4, in the test with PCB490-5 and in the test with PCB490-3 was > 100 µM throughout.
`CCOc1ccccc1CCN=C1NC(=O)/C(=C/c2ccc3ncccc3c2)S1`: the IC50 cell viability in the test on PCB490-4, in the test on PCB490-5 and with PCB490-3 was > 100 µM throughout.
As for `Cn1cc(C2=C(c3cccnc3)C(=O)NC2=O)c2ccccc21`, the IC50 cell viability with PCB490-4, in the test on PCB490-5 and with PCB490-3 was > 100 µM each time.
In the case of `CO/N=C(\c1ccccc1)c1cnn(-c2ccccc2)c1N`, the IC50 cell viability with PCB490-4, with PCB490-5 and in the test with PCB490-3 was > 100 µM throughout.
`N#CCn1c(=O)c(Oc2ccc(F)cc2F)cc2cnc(NC3CCOCC3)nc21`: the IC50 cell viability in the test on PCB490-4, in the test on PCB490-5 and in the test with PCB490-3 was > 100 µM throughout.
With `CC(=O)N[C@@H](Cc1ccc(OP(=O)(O)O)cc1)C(=O)N[C@H]1CCC(=O)N2CCC[C@@H](C(=O)NCc3cccc4ccccc34)N2C1=O`, the IC50 cell viability in the test with PCB490-4, in the test with PCB490-5 and with PCB490-3 was > 100 µM in each case.
As for `Nc1c(C(=O)c2cccc(C(O)CO)c2)cnn1-c1ccc(F)cc1` (centres undefined), the IC50 cell viability in the test on PCB490-4, in the test on PCB490-5 and with PCB490-3 was > 100 µM in each case.
Consider `N#Cc1cccc(C(=O)c2cnn(-c3ccc(F)cc3)c2N)c1`, for which the IC50 cell viability in the test with PCB490-4, with PCB490-5 and in the test with PCB490-3 was > 100 µM in each case.
With `CNc1ncc2cc(Oc3ccc(F)cc3F)c(=O)n(C)c2n1`, the IC50 cell viability in the test on PCB490-4, in the test with PCB490-5 and in the test on PCB490-3 was > 100 µM throughout.
Regarding `Cn1cc(C2=C(N3CCOCC3)C(=O)NC2=O)c2ccccc21`, the IC50 cell viability in the test with PCB490-4, in the test with PCB490-5 and in the test with PCB490-3 was > 100 µM in each case.
Regarding `COc1cccc(C(=O)c2sc(Nc3ccc(N4CCN(C(C)C)CC4)cc3)nc2N)c1`, the IC50 cell viability with PCB490-4, in the test with PCB490-5 and with PCB490-3 was > 100 µM each time.
For `CC(=O)N1CCC(Nc2ncc3cc(Oc4ccc(F)cc4F)c(=O)n(C)c3n2)CC1`, the IC50 cell viability in the test with PCB490-4, in the test with PCB490-5 and in the test with PCB490-3 was > 100 µM each time.
Take `O=C1NC(=NCCc2cccc(Cl)c2)S/C1=C\c1ccc2ncccc2c1`: the IC50 cell viability in the test on PCB490-4, in the test with PCB490-5 and with PCB490-3 was > 100 µM each time.
As for `Cn1cc(C2=C(c3c([S+](C)[O-])n(C)c4ccccc34)C(=O)NC2=O)c2ccccc21` (centres undefined), the IC50 cell viability in the test on PCB490-4, with PCB490-5 and in the test on PCB490-3 was > 100 µM in each case.
For `COc1ccc(O)c(C(=O)c2ccc(C(=O)O[C@@H]3CCCNC[C@H]3NC(=O)c3ccncc3)cc2)c1F`, the IC50 cell viability with PCB490-4, in the test on PCB490-5 and in the test on PCB490-3 was > 100 µM in each case.
Turning to `CC(=O)Nc1ccc2c(c1)C(c1ccccc1Cl)=Nc1c(n[nH]c1C)N2`, the IC50 cell viability came to 1.72 µM in the test with PCB490-4, 1.55 µM in the test with PCB490-5 and 4.63 µM in the test with PCB490-3.
In the test with U23674, `CCN1CCC(CC(=O)Nc2n[nH]c3nc(-c4cccs4)c(Br)cc23)CC1` had an IC50 cell viability of 1.3 µM.
As to `O=C(Nc1ccc(Oc2ccc3nc(NC(=O)c4ccco4)[nH]c3c2)cc1)Nc1cc(C(F)(F)F)ccc1F`, the IC50 cell viability with U23674 was > 10 µM.
On the same count and under the same terms, next, `COc1cc2ncnc(Nc3ccc4c(cnn4Cc4ccccc4)c3)c2cc1OC`: > 10 µM.
For the molecule `CCn1c(-c2nonc2N)nc2ccncc21`, the IC50 cell viability in the test with U23674 was > 10 µM.
The same measure, in the same setting: in the case of `CCc1nccc2c1nc(-c1nonc1N)n2CC` it was > 10 µM; in that of `O=C(NCC1CC1)c1ccc(-c2cccc(C(=O)NC3CC3)c2)cc1`, > 10 µM; in that of `Cn1cc(C=C2C(=O)Nc3cccnc32)c2ccccc21`, > 10 µM.
As to `C[C@@H](Oc1cc(-n2cnc3ccc(OC[C@@H](O)CO)cc32)sc1C(N)=O)c1ccccc1Cl`, the IC50 cell viability in the test on U23674 (mouse alveolar rhabdomyosarcoma primary culture) was determined as 5.4 µM.
With `CS(=O)(=O)CCNCc1ccoc1-c1ccc2ncnc(Nc3ccc(OCc4ccccc4)cc3)c2c1`, the IC50 cell viability in the test on U23674 was > 10 µM.
For `C[C@@H](Oc1cc(-n2cnc3ccc(OCC4CCN(C)CC4)cc32)sc1C(N)=O)c1ccccc1Cl`, in the test with U23674, the IC50 cell viability turned out to be 1.3 µM.
With `COc1cccc(COc2cc(-n3cnc4ccccc43)sc2C(N)=O)c1`, the IC50 cell viability in the test on U23674 is > 10 µM.
Turning to `O=S(=O)(CCNCc1ccc(-c2ccc3ncnc(Nc4ccc(OCc5cccc(F)c5)c(Cl)c4)c3c2)o1)c1ccccc1`, the IC50 cell viability with U23674 is > 10 µM.
Still for that read-out and setting: in the case of `CCn1c(-c2nonc2N)nc2c(C#CC(C)(C)O)nc(OCCNC)cc21` it was 1.3 µM.
For `COc1cc2ncnc(Nc3ccc(C)c(O)c3)c2cc1OC`, the IC50 cell viability in the test with U23674 was > 10 µM.
Consider `CCn1c(-c2nonc2N)nc2cnc(Oc3cccc(NC(=O)c4ccc(N(C)C)cc4)c3)cc21`, for which, in the test on U23674, the IC50 cell viability is > 10 µM.
Still for that read-out and setting: in the case of `CS(=O)(=O)Nc1ccc(-c2cc(-c3ccccc3)cc(C(N)=O)c2N)cc1` it was > 10 µM; in that of `Nc1nc(-c2cccc(Cl)c2)c(-c2ccc3ncccc3n2)s1`, > 10 µM.
Take `CCCNc1cccc(-n2ncc3c(N/N=C/c4ccncc4)ncnc32)c1`: the IC50 cell viability in the test with U23674 is > 10 µM.
For the molecule `CCn1c(-c2nonc2N)nc2ccc(F)cc21`, the IC50 cell viability with U23674 is > 10 µM.
Same read-out and setting: in the case of `C#Cc1cccc(Nc2ncnc3ccc(OCCCCNCCS(C)(=O)=O)cc23)c1` it was 4.9 µM; in that of `CNC(=O)c1cncc(/C=C/c2ccccc2Cl)c1`, > 10 µM; in that of `COc1ccc2cc(-c3c(-c4ccncc4)nc(-c4ccc([S+](C)[O-])cc4C)n3C)ccc2c1` (centres undefined), > 10 µM.
For the molecule `CCC(=O)Nc1ccc(C)c(-c2ccc(C(=O)NCC3CC3)cc2)c1`, in the test with U23674, the IC50 cell viability is > 10 µM.
On to `Fc1cccc(COc2ccc(Nc3ncncc3C#Cc3ccccc3)cc2Cl)c1`, for which the IC50 cell viability in the test with U23674 was > 10 µM.
